According to patent publication US8557830B2, “RAF kinase modulators and methods of use” (Amgen Inc., priority 2007, dated 2013):
Like-named read-outs stand apart in the source and are kept apart here.

Key:
recombinant HuBraf V600E = recombinant HuBraf V600E (Homo sapiens, UniProt P15056, V600E); assay: B-raf Homogenous Time Resolved Fluorescent (HTRF) kinase assay; format: biochemical; conditions: human mutant B-raf V600E, substrate MEK1, 10 uM ATP, read-out: HTRF Enzyme assay Data IC50
Procedure: B-raf-Homogenous Time Resolved Fluorescent (HTRF) Kinase Assay
The final concentration of the kinase reaction buffer is 50 mM Tris-HCL pH 7.5, 10 mM MgCl2, 0.5% glucose, 0.5 mM DTT, 0.01% BSA. […] The detection reaction proceeds for one hour and is read on a RubyStar (BMG Labtech) counter. IC50s for the test compounds are generated using Excel-XLfit software.

V600E mutant B-raf = biological target: T1, V600E mutant B-raf (Homo sapiens, UniProt P15056, V600E); assay: B-raf cell-based assay (ratio of phospho-ERK1/2 to total ERK1/2 in A375 cells); conditions: A375 human melanoma cells, P-ERK/total ERK
T1 construct: A375 cells, a human melanoma cell line having the V600E mutant B-raf is used in this assay; endogenous in cells; host or cells: A375 human melanoma cells
Procedure: A cell-based assay was optimized to assay the ability of compounds to inhibit B-raf activity in a whole cell context. […] The cell-based assay quantifies the ratio of phospho-ERK1/2 to total ERK1/2 and can thereby assay the cellular inhibition of B-raf kinase activity. A375 cells are plated into 96 well plates and grown to confluence. The cells are then changed into starve media (DMEM/0.1% BSA) for 60 minutes. Compounds in DMSO dose curves are then diluted in starve media and added to cells. […] After a 60 minute incubation the cells are fixed for 20 minutes at RT in 4% formaldehyde with 0.1% Triton X-100, protease and phosphatase inhibitors in PBS. The cells are washed four times in PBS then blocked for 60 minutes using a one to one mix of Odyssey blocking buffer (Li-Cor Biosciences, Inc) and PBS. Primary antibodies (rabbit anti-phospho p42/p44 MAPK (P-ERK1/2) from Cell Signaling Technology and mouse anti-ERK2 from Santa Cruz Biotechnology) are diluted in blocking buffer, added to the cells and incubated overnight at 4° C. The cells are then washed four times in PBS/0.1% Tween-20. Secondary antibodies (anti-mouse IRDye 800CW from Rockland, Inc and anti-rabbit AlexaFlour680 from Molecular Probes) are diluted in blocking buffer/0.5% Tween and incubated on cells for 60 minutes. After 4 washes in PBS/0.1% Tween-20 the microplate is scanned on an Odyssey Infrared Imager (Li-Cor Bioscience) which can read the signal given by the two secondary antibodies on their respective channels. The ratio of P-ERK/total ERK is determined and IC50s generated using Excel-XLfit software.

T1 sequence (P15056 whole entry V600E): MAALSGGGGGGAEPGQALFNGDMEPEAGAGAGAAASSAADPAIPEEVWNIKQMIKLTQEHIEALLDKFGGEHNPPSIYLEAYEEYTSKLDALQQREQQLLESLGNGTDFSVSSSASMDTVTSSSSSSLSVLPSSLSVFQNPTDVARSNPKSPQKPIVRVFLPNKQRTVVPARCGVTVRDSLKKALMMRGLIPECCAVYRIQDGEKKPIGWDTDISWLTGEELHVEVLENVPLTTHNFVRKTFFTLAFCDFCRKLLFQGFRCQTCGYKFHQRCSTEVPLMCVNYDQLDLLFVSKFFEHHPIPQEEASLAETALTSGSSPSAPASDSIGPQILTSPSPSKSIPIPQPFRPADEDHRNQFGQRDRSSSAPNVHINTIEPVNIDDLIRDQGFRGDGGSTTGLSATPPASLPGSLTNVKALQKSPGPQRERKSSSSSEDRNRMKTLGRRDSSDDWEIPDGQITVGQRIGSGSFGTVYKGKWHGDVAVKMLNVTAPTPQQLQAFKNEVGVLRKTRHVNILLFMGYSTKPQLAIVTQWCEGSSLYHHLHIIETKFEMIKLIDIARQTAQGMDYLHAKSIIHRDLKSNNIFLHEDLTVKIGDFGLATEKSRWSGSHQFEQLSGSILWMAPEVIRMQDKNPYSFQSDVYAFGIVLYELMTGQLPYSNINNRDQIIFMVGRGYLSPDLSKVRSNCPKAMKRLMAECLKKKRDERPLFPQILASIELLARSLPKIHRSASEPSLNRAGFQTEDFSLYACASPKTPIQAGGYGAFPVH
Chain of recombinant HuBraf V600E (P15056 whole entry V600E): as above

Structure (SMILES)	IC50 (recombinant HuBraf V600E; Table I) [nM]	IC50 (V600E mutant B-raf; Table I) [nM]	IC50 (recombinant HuBraf V600E; Table II) [nM]	IC50 (V600E mutant B-raf; Table II) [nM]
COc1ccc(Nc2nccc3c(Nc4ncccc4-c4ncnc5[nH]ncc45)c(C)ccc23)cc1C(F)(F)F [Example 66, N5-(3-(1H-pyrazolo[3,4-d]pyrimidin-4-yl)pyridin-2-yl)-N1-(4-methoxy-3-(trifluoromethyl)phenyl)-6-methylisoquinoline-1,5-diamine]	25	28		
Cc1ccc2c(Nc3ccc(Cl)cc3)nccc2c1Nc1ncccc1-c1ncnc2[nH]ncc12 [Example 67, N5-(3-(1H-pyrazolo[3,4-d]pyrimidin-4-yl)pyridin-2-yl)-N1-(4-chlorophenyl)-6-methylisoquinoline-1,5-diamine]	5	3		
Cc1ccc2c(Nc3ccc(Cl)cc3)nccc2c1Oc1ncccc1-c1ncnc2[nH]cnc12 [Example 68, N-(4-chlorophenyl)-6-methyl-5-((3-(9H-purin-6-yl)-2-pyridinyl)oxy)-1-isoquinolinamine]	26	1000		
Cc1ccc2c(Nc3ccc4c(c3)OC(F)(F)O4)nccc2c1Nc1ncccc1-c1ncnc2[nH]ncc12 [Example 72, N-1-(2,2-difluoro-1,3-benzodioxol-5-yl)-6-methyl-N-5-(3-(1H-pyrazolo[3,4-d]pyrimidin-4-yl)-2-pyridinyl)-1,5-isoquinolinediamine]			20	18
Cc1ccc2c(Nc3cccc(C(F)(F)F)c3)ncnc2c1Nc1ncccc1-c1ncnc2[nH]cnc12 [Example 73, 7-methyl-N-8-(3-(9H-purin-6-yl)-2-pyridinyl)-N-4-(3-(trifluoromethyl)phenyl)-4,8-quinazolinediamine]			26	33
Cc1ccc2c(Nc3ccc4c(c3)OC(F)(F)O4)ncnc2c1Nc1ncccc1-c1ncnc2[nH]cnc12 [Example 74, N-4-(2,2-difluoro-1,3-benzodioxol-5-yl)-7-methyl-N-8-(3-(9H-purin-6-yl)-2-pyridinyl)-4,8-quinazolinediamine]			8	4
Cc1ccc2c(Nc3ccc(OC(F)F)cc3)ncnc2c1Nc1ncccc1-c1ncnc2[nH]cnc12 [Example 76, N-4-(4-(difluoromethoxy)phenyl)-7-methyl-N-8-(3-(9H-purin-6-yl)-2-pyridinyl)-4,8-quinazolinediamine]			9	5
Cc1ccc2c(Nc3ccc(Cl)cc3)ncnc2c1Nc1ncccc1-c1ncnc2[nH]cnc12 [Example 77, N-4-(4-chlorophenyl)-7-methyl-N-8-(3-(9H-purin-6-yl)-2-pyridinyl)-4,8-quinazolinediamine]			5	12
Cc1ccc2c(N[C@H](C)c3ccc(Cl)cc3)nccc2c1Nc1ncccc1-c1ncnc2[nH]cnc12 [Example 78, N-1-((1R)-1-(4-chlorophenyl)ethyl)-6-methyl-N-5-(3-(9H-purin-6-yl)-2-pyridinyl)-1,5-isoquinolinediamine]			33	33

The remaining compounds from weak to strong by IC50 (recombinant HuBraf V600E; Table II), led by results:

IC50 (recombinant HuBraf V600E; Table I) [nM]	IC50 (V600E mutant B-raf; Table I) [nM]	IC50 (recombinant HuBraf V600E; Table II) [nM]	IC50 (V600E mutant B-raf; Table II) [nM]	Structure (SMILES)
		5	86	Cc1ccc2c(Nc3ccc(C#N)cc3)ncnc2c1Nc1ncccc1-c1ncnc2[nH]ncc12 [Example 70, 4-((7-methyl-8-((3-(1H-pyrazolo[3,4-d]pyrimidin-4-yl)-2-pyridinyl)amino)-4-quinazolinyl)amino)benzonitrile]
		4	12	Cc1ccc2c(Nc3ccc(C#N)cc3)nccc2c1Nc1ncccc1-c1ncnc2[nH]ncc12 [Example 71, 4-((6-methyl-5-((3-(1H-pyrazolo[3,4-d]pyrimidin-4-yl)-2-pyridinyl)amino)-1-isoquinolinyl)amino)benzonitrile]
		3	28	C#Cc1cccc(Nc2ncnc3c(Nc4ncccc4-c4ncnc5[nH]cnc45)c(C)ccc23)c1 [Example 75, N-4-(3-ethynylphenyl)-7-methyl-N-8-(3-(9H-purin-6-yl)-2-pyridinyl)-4,8-quinazolinediamine]
		2	4	Cc1ccc2c(Nc3ccc(Cl)cc3)nccc2c1Nc1ncncc1-c1ncnc2[nH]cnc12 [Example 69, N-1-(4-chlorophenyl)-6-methyl-N-5-(5-(9H-purin-6-yl)-4-pyrimidinyl)-1,5-isoquinolinediamine]
